The target in this data set is T1, CYP2B6 (Homo sapiens, UniProt P20813).
T1 construct: co-incubation ticagrelor-O-Glu with selective P450 probe substrates in HLM; tissue XenoTech LLC; host or cells: pooled human liver microsomes
T1 sequence (P20813 1-491): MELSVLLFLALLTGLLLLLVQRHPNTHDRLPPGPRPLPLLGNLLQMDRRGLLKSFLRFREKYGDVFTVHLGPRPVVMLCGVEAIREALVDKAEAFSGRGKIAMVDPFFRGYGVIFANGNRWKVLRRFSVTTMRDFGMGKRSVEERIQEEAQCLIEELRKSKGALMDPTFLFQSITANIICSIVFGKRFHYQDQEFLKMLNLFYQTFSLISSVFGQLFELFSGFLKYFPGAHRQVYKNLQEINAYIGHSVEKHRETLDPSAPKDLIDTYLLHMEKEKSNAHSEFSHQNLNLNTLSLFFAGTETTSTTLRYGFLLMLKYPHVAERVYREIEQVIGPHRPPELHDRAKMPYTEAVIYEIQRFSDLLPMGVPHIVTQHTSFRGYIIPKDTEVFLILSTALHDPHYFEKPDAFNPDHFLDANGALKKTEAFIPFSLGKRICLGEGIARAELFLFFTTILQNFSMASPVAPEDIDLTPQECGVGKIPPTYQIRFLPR
The experiment in a line: CYP2B6 inhibition in HLM (bupropion hydroxylase). It is filed as in vitro ADME. The procedure: The potential inhibitory effects of ticagrelor-O-Glu on the activities of major CYPs, i.e., CYP2B6, CYP2C8, CYP2C9, CYP2C19, CYP2D6, and CYP3A4, were evaluated by co-incubation ticagrelor-O-Glu with selective P450 probe substrates in HLM. Each incubation mixture containing 0.2 mg/ml HLM, ticagrelor-O-Glu and respective substrate (the final substrate concentrations are close to or less than the Km values: 150 μM bupropion, 1.26 μM amodiaquine, 10 μM diclofenac, 20 μM mephenytoin, 20 μM dextromethorphan and 80 μM testosterone (in house data)) in potassium phosphate buffer (100 mM, pH 7.4) was pre-incubated at 37°C for 5 min. Then, NADPH (10 mM) was added to initiate the reaction. The final volume of the incubation mixture was 100 μl. After incubation at 37°C for specific time points, the reaction was terminated by the addition of 200 μl of ice-cold methanol solution with internal standards (diazepam and furafylline). Preliminary screening experiments with selected concentrations of ticagrelor-O-Glu (0, 1, 10, or 100 μM of the final concentration) were carried out to determine the inhibition potency. For those that produced approximately 50% inhibition of CYPs enzyme activities at a ticagrelor-O-Glu concentration between 1 and 100 μM, IC50 was further determined with various concentrations of ticagrelor-O-Glu (0, 1, 5, 10, 20, 50, and 100 μM). All the experiments were performed in triplicates. The supernatant was obtained after centrifugation at 14,000 rpm for 10 min and injected into LC-MS/MS for the analysis of the respective metabolites. The formation of respective metabolites was determined to reflect P450 isoform activities. The metabolites quantified for CYP2B6, CYP2C8, CYP2C9, CYP2C19, CYP2D6, and CYP3A4 were hydroxy bupropion, N-Desethyl amodiaquine, 4′-hydroxylation diclofenac, S-4-hydroxy mephenytoin, dextrorphan and 6β-hydroxy testosterone, respectively.
The percent inhibition relative to the control was calculated to indicate the UGTs or CYPs inhibition. […]

The IC50 is the concentration that gives 50% inhibition. In general, inhibition refers to the share of the control response that was lost under treatment. High values mean a response far below the control, low ones a response near the control. The compound `CCCSc1nc(N[C@@H]2C[C@H]2c2ccc(F)c(F)c2)c2nnn([C@@H]3C[C@H](OCCO[C@@H]4O[C@H](C(=O)O)[C@@H](O)[C@H](O)[C@H]4O)[C@@H](O)[C@H]3O)c2n1` [Ticagrelor-O-Glu, ticagrelor-O-glucuronide] had a concentration for half-maximal inhibition (IC50) (CYP2B6, bupropion hydroxylase, HLM 0.2 mg/ml) of 45 µM. The compound further yielded an inhibition at 10 μM (human, human liver microsomes, pH 7.4, probe bupropion (150 μM), hydroxy bupropion formation, HLM, 10 μM ticagrelor-O-Glu) of 19.1%. The compound further gave an inhibition at 100 µM (human, human liver microsomes, pH 7.4, probe bupropion (150 μM), hydroxy bupropion formation, HLM, 100 μM ticagrelor-O-Glu) of 77.9%.
